# Results as given in patent US11377425B1, “Small molecule modulators of IL-17” (LEO Pharma A/S, priority 2018, dated 2022).
# Target: T1, human IL-17AA (Homo sapiens, UniProt Q16552)
# T1 construct: host or cells: HEK (human embryonic kidney) cells
# T1 sequence (Q16552 24-155): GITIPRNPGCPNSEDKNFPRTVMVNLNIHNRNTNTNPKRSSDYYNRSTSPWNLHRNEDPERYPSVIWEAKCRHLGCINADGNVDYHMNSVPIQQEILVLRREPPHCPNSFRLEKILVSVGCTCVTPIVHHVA
# Assay: IL-8 release assay in human epithelial keratinocytes adult (HEKa)
# Format: cell-based
# Conditions: HEKa cells, 3 ng/mL HEK-human IL-17AA + 10 ng/mL human TNFalpha; read-out: Rel EC50 IL-8 release assay
# Outline: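 Adult human epidermal keratinocytes stimulated 68-72 h at 37 °C with 3 ng/mL HEK-derived human IL-17AA plus 10 ng/mL TNF-alpha (final) in the presence of compound; TNF-alpha alone defines 100% inhibition. Secreted IL-8 measured by HTRF as percent of controls; relative IC50/Emax from four-parameter fit (r^2>0.9), cytotoxicity by PrestoBlue.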
row,SMILES,EC50 [µM]
1,"Cc1n[nH]c(C)c1-c1ccc(NC(=O)[C@@H](NC(=O)c2cnc3ccccn23)C2CCCCC2)cc1 [Example 293, N-[(1S)-1-cyclohexyl-2-[4-(3,5-dimethyl-1H-pyrazol-4-yl)anilino]-2-oxo-ethyl]imidazo[1,2-a]pyridine-3-carboxamide]",0.1 to 1
2,"Cc1n[nH]c(C)c1-c1ccc(NC(=O)C(NC(=O)c2ccnn2C(C)C)C(C2CC(F)(F)C2)C2CC(F)(F)C2)cc1 (stereo not shown) [Example 295, N-[1-[bis(3,3-difluorocyclobutyl)methyl]-2-[4-(3,5-dimethyl-1H-pyrazol-4-yl)anilino]-2-oxo-ethyl]-2-isopropyl-pyrazole-3-carboxamide]",0.1 to 1
3,"Cc1n[nH]c(C)c1-c1ccc(NC(=O)[C@@H](Cc2ccccc2)NC(=O)c2ccnn2C)cc1 [Example 297, N-[(1R)-1-benzyl-2-[4-(3,5-dimethyl-1H-pyrazol-4-yl)anilino]-2-oxo-ethyl]-2-methyl-pyrazole-3-carboxamide]",> 1
4,Cc1n[nH]c(C)c1-c1ccc(NC(=O)[C@H](CC(C)C)NC(=O)c2ccnn2C)cc1 [Example 298],> 1
5,"Cn1cncc1-c1ccc(NC(=O)[C@H](Cc2cc(C#N)ccc2Cl)NC(=O)OC(C)(C)C)cc1 [Example 307, tert-butyl N-[(1S)-1-[(2-chloro-5-cyano-phenyl)methyl]-2-[4-(3-methylimidazol-4-yl)anilino]-2-oxo-ethyl]carbamate]",> 1
6,"Cc1ncn(C)c1-c1ccc(NC(=O)[C@@H](NC(=O)c2ccnn2C)C2CCCCCC2)cc1 [Example 336, N-[(1S)-1-cycloheptyl-2-[4-(3,5-dimethylimidazol-4-yl)anilino]-2-oxo-ethyl]-2-methyl-pyrazole-3-carboxamide]",0.1 to 1
7,"Cc1ncn(C)c1-c1ccc(NC(=O)[C@@H](NC(=O)c2ccnn2C)C2CCCCC2)cc1 [Example 337, N-[(1S)-1-cyclohexyl-2-[4-(3,5-dimethylimidazol-4-yl)anilino]-2-oxo-ethyl]-2-methyl-pyrazole-3-carboxamide]",0.1 to 1
8,"Cc1ncn(C)c1-c1ccc(NC(=O)[C@@H](NC(=O)c2ccnn2C)C(c2ccccc2)c2ccccc2)cc1 [Example 338, N-[(1S)-1-benzhydryl-2-[4-(3,5-dimethylimidazol-4-yl)anilino]-2-oxo-ethyl]-2-methyl-pyrazole-3-carboxamide]",0.1 to 1
9,"Cn1cncc1-c1ccc(NC(=O)[C@@H](NC(=O)c2ccnn2C)[C@H]2CCc3ccc(Br)cc32)cc1 [Example 341, N-[(1S)-1-[(1S)-6-bromoindan-1-yl]-2-[4-(3-methylimidazol-4-yl)anilino]-2-oxo-ethyl]-2-methyl-pyrazole-3-carboxamide]",0.1 to 1
10,"Cn1cncc1-c1ccc(NC(=O)[C@@H](NC(=O)c2ccnn2C)C2CCCCC2)cc1 [Example 343, N-[(1S)-1-cyclohexyl-2-[4-(3-methylimidazol-4-yl)anilino]-2-oxo-ethyl]-2-methyl-pyrazole-3-carboxamide]",> 1
11,"Cn1cncc1-c1ccc(NC(=O)[C@H](Cc2cc(Br)ccc2Cl)NC(=O)c2ccnn2C)cc1 [Example 345, N-[(1S)-1-[(5-bromo-2-chloro-phenyl)methyl]-2-[4-(3-methylimidazol-4-yl)anilino]-2-oxo-ethyl]-2-methyl-pyrazole-3-carboxamide]",0.1 to 1
12,"Cn1cncc1-c1ccc(NC(=O)[C@@H](NC(=O)c2ccnn2C)C(c2ccccc2)c2ccccc2)cc1 [Example 346, N-[(1S)-1-benzhydryl-2-[4-(3-methylimidazol-4-yl)anilino]-2-oxo-ethyl]-2-methyl-pyrazole-3-carboxamide]",0.1 to 1
13,"Cn1cncc1-c1ccc(NC(=O)[C@@H](NC(=O)C2(F)CC2)C(c2ccccc2)c2ccccc2)cc1 [Example 347, N-[(1S)-1-benzhydryl-2-[4-(3-methylimidazol-4-yl)anilino]-2-oxo-ethyl]-1-fluoro-cyclopropanecarboxamide]",0.1 to 1
14,"Cn1cnnc1-c1ccc(NC(=O)[C@@H](NC(=O)c2cnnn2-c2ccccc2)C2CCCCC2)cc1 [Example 348, N-[(1S)-1-cyclohexyl-2-[4-(4-methyl-1,2,4-triazol-3-yl)anilino]-2-oxo-ethyl]-3-phenyl-triazole-4-carboxamide]",> 1
15,"CC(C)n1nccc1C(=O)N[C@H](C(=O)Nc1ccc(-c2nncn2C)cc1)C1CCCCCC1 [Example 349, N-[(1S)-1-cycloheptyl-2-[4-(4-methyl-1,2,4-triazol-3-yl)anilino]-2-oxo-ethyl]-2-isopropyl-pyrazole-3-carboxamide]",0.1 to 1
16,"Cn1cnnc1-c1ccc(NC(=O)[C@@H](NC(=O)c2ccnn2C)C2CCCCCC2)cc1 [Example 350, N-[(1S)-1-cycloheptyl-2-[4-(4-methyl-1,2,4-triazol-3-yl)anilino]-2-oxo-ethyl]-2-methyl-pyrazole-3-carboxamide]",> 1
17,"CC(C)n1nccc1C(=O)N[C@H](C(=O)Nc1ccc(-c2nncn2C)cc1)C1CCCCC1 [Example 351, N-[(1S)-1-cyclohexyl-2-[4-(4-methyl-1,2,4-triazol-3-yl)anilino]-2-oxo-ethyl]-2-isopropyl-pyrazole-3-carboxamide]",0.1 to 1
18,"Cn1cnnc1-c1ccc(NC(=O)[C@@H](NC(=O)C2(F)CC2)C(c2ccccc2)c2ccccc2)cc1 [Example 353, N-[(1S)-1-benzhydryl-2-[4-(4-methyl-1,2,4-triazol-3-yl)anilino]-2-oxo-ethyl]-1-fluoro-cyclopropanecarboxamide]",> 1
19,"Cn1cnnc1-c1ccc(NC(=O)[C@@H](NC(=O)c2ccnn2C)C(c2ccccc2)c2ccccc2)cc1 [Example 354, N-[(1S)-1-benzhydryl-2-[4-(4-methyl-1,2,4-triazol-3-yl)anilino]-2-oxo-ethyl]-2-methyl-pyrazole-3-carboxamide]",> 1
20,"COc1n[nH]c(C)c1-c1ccc(NC(=O)[C@@H](NC(=O)c2ccnn2C)C2CCCCC2)cc1 [Example 358, N-[(1S)-1-cyclohexyl-2-[4-(5-methoxy-3-methyl-1H-pyrazol-4-yl)anilino]-2-oxo-ethyl]-2-methyl-pyrazole-3-carboxamide]",> 1
21,"CCOc1n[nH]c(C)c1-c1ccc(NC(=O)[C@@H](NC(=O)c2ccnn2C)C2CCCCC2)cc1 [Example 359, N-[(1S)-1-cyclohexyl-2-[4-(5-ethoxy-3-methyl-1H-pyrazol-4-yl)anilino]-2-oxo-ethyl]-2-methyl-pyrazole-3-carboxamide]",0.1 to 1

# Other lines, results leading:
row,EC50 [µM],SMILES
1,< 0.1,"Cc1n[nH]c(C)c1-c1ccc(NC(=O)[C@@H](NC(=O)c2ccnn2C(C)C)[C@H]2CCOc3ccc(F)cc32)cc1 [Example 289, N-[(1S)-2-[4-(3,5-dimethyl-1H-pyrazol-4-N yl)anilino]-1-[(4S)-6-fluorochroman-4-yl]-2-oxo-ethyl]-2-isopropyl-pyrazole-3-carboxamide]"
2,< 0.1,"CCc1nocc1C(=O)N[C@H](C(=O)Nc1ccc(-c2c(C)n[nH]c2C)cc1)C(C1CC1)C1CC1 [Example 290, N-[(1S)-1-(dicyclopropylmethyl)-2-[4-(3,5-dimethyl-1H-pyrazol-4-yl)anilino]-2-oxo-ethyl]-3-ethyl-isoxazole-4-carboxamide]"
3,< 0.1,"Cc1n[nH]c(C)c1-c1ccc(NC(=O)[C@@H](NC(=O)c2conc2C(C)C)C(C2CC2)C2CC2)cc1 [Example 291, N-[(1S)-1-(dicyclopropylmethyl)-2-[4-(3,5-dimethyl-1H-pyrazol-4-yl)anilino]-2-oxo-ethyl]-3-isopropyl-isoxazole-4-carboxamide]"
4,< 0.1,"Cc1n[nH]c(C)c1-c1ccc(NC(=O)[C@@H](NC(=O)c2cnnn2C(C)C)C(C2CC2)C2CC2)cc1 [Example 292, N-[(1S)-1-(dicyclopropylmethyl)-2-[4-(3,5-dimethyl-1H-pyrazol-4-yl)anilino]-2-oxo-ethyl]-3-isopropyl-triazole-4-carboxamide]"
5,0.1 to 1,"Cc1ncn(C)c1-c1ccc(NC(=O)C(NC(=O)c2ccnn2C)C(C2CC2)C2CC2)cc1 (stereo not shown) [Example 332, N-[1-(dicyclopropylmethyl)-2-[4-(3,5-dimethylimidazol-4-yl)anilino]-2-oxo-ethyl]-2-methyl-pyrazole-3-carboxamide]"
6,> 1,"Cc1ncn(C)c1-c1ccc(NC(=O)[C@@H](NC(=O)c2ccnn2C)C2CCCC2)cc1 [Example 335, N-[(1S)-1-cyclopentyl-2-[4-(3,5-dimethylimidazol-4-yl)anilino]-2-oxo-ethyl]-2-methyl-pyrazole-3-carboxamide]"
7,> 1,"Cn1cncc1-c1ccc(NC(=O)[C@@H](NC(=O)c2ccnn2C)[C@@H]2CCc3ccc(Br)cc32)cc1 [Example 340, N-[(1S)-1-[(1R)-6-bromoindan-1-yl]-2-[4-(3-methylimidazol-4-yl)anilino]-2-oxo-ethyl]-2-methyl-pyrazole-3-carboxamide]"
8,> 1,"Cn1cncc1-c1ccc(NC(=O)[C@H](Cc2cc(C#N)ccc2Cl)NC(=O)c2ccnn2C)cc1 [Example 342, N-[(1S)-1-[(2-chloro-5-cyano-phenyl)methyl]-2-[4-(3-methylimidazol-4-yl)anilino]-2-oxo-ethyl]-2-methyl-pyrazole-3-carboxamide]"
9,> 1,"Cn1cncc1-c1ccc(NC(=O)[C@@H](NC(=O)c2ccnn2C)[C@@H]2CCCc3ccc(Br)cc32)cc1 [Example 344, N-[(1S)-1-[(1R)-7-bromotetralin-1-yl]-2-[4-(3-methylimidazol-4-yl)anilino]-2-oxo-ethyl]-2-methyl-pyrazole-3-carboxamide]"
10,> 1,"Cn1cnnc1-c1ccc(NC(=O)[C@@H](NC(=O)c2ccnn2C)C2CCCCC2)cc1 [Example 352, N-[(1S)-1-cyclohexyl-2-[4-(4-methyl-1,2,4-triazol-3-yl)anilino]-2-oxo-ethyl]-2-methyl-pyrazole-3-carboxamide]"
